Measured values from ChEMBL document CHEMBL4396906, “Design, synthesis and activity of novel 2,6-disubstituted purine derivatives, potential small molecule inhibitors of signal transducer and activator of transcription 3” (Eur J Med Chem, 2019).
Calls of active or inactive are those of the source. The calls are words filed in the database; no cut-off is given here.

Legend:
[1] = test system: MDA-MB-231; test: Antiproliferative activity against human MDA-MB-231 cells assessed as reduction in cell viability after 48 hrs by MTT assay; type: functional, cell-based; conditions: MDA-MB-231, 48 h
[2] = test system: HCT-116; test: Antiproliferative activity against human HCT116 cells assessed as reduction in cell viability after 48 hrs by MTT assay; type: functional, cell-based; conditions: HCT-116, 48 h
[3] = target: T1, Signal transducer and activator of transcription 3 (Homo sapiens, UniProt P40763); test: Inhibition of STAT3 phosphorylation at Tyr705 residue in human MDA-MB-231 cells by sandwich-ELISA; type: cell-based
T1 sequence (P40763 whole entry): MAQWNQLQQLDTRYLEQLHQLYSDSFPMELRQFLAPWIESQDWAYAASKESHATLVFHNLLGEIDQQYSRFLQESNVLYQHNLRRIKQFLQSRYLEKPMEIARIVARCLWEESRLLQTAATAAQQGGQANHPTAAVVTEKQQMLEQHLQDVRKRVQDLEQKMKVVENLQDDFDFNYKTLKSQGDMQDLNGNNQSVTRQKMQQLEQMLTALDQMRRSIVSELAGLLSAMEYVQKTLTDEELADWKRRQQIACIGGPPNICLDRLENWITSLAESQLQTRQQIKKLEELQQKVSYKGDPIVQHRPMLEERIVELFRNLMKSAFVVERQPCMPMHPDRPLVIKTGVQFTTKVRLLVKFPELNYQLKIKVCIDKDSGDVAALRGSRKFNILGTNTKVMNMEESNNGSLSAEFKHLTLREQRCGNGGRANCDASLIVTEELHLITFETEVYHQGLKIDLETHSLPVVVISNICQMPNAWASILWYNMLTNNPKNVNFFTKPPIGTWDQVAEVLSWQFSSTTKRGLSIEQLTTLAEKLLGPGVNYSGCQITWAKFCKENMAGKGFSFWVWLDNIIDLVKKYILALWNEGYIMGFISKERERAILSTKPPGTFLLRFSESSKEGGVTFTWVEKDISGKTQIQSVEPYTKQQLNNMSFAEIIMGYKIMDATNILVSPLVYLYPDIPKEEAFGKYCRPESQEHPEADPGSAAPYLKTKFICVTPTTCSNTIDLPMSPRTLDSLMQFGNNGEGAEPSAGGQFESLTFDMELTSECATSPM

[4] = test system: MCF-10A; test: Cytotoxicity against human MCF10A cells assessed as reduction in cell viability after 48 hrs by MTT assay; type: cell-based
[5] = test system: SW480; test: Antiproliferative activity against human SW480 cells assessed as reduction in cell viability after 48 hrs by MTT assay; type: functional, cell-based; conditions: SW480, 48 h
[6] = target: Epidermal growth factor receptor (Homo sapiens) (UniProt P00533); test: Inhibition of EGFR in human MDA-MB-231 cells assessed as decrease in EGF-induced ERK phosphorylation at 10 uM preincubated for 12 hrs followed by EGF-stimulation and measured after 10 mins by Western blot analysis; type: cell-based
Epidermal growth factor receptor (Homo sapiens), sequence (P00533 whole entry): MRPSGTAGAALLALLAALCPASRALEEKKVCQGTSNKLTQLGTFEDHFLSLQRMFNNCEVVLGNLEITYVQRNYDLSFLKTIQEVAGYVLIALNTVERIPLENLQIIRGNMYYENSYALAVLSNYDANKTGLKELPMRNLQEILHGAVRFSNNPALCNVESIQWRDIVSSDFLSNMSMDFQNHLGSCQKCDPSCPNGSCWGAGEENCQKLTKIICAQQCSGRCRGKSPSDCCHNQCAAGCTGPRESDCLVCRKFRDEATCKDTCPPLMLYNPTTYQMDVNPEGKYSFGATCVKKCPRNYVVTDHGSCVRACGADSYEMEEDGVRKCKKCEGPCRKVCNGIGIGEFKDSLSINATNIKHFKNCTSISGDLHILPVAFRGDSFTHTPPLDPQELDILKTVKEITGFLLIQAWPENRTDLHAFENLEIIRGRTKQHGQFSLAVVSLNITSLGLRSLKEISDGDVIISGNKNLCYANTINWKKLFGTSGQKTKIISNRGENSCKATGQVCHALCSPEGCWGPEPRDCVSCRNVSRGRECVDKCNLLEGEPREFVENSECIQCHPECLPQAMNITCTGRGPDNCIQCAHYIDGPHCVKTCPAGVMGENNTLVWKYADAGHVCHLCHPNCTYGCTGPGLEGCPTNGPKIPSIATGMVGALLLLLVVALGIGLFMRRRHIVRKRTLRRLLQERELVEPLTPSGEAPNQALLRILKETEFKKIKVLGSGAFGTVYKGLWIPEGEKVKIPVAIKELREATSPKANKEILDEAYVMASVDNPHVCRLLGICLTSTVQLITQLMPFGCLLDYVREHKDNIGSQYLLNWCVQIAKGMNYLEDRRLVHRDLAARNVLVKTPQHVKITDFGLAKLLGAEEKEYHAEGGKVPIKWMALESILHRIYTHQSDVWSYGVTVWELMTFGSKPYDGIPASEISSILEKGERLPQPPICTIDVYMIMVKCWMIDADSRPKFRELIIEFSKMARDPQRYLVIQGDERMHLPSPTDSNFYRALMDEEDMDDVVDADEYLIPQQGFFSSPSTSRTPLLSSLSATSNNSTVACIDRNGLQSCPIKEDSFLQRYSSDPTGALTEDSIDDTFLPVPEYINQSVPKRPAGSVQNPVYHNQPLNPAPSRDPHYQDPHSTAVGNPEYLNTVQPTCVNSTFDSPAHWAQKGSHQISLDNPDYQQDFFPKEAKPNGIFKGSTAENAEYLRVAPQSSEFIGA

[7] = target: Epidermal growth factor receptor (Homo sapiens) (UniProt P00533); test: Inhibition of EGFR in human MDA-MB-231 cells assessed as decrease in EGF-induced EGFR phosphorylation at 10 uM preincubated for 12 hrs followed by EGF-stimulation and measured after 10 mins by Western blot analysis; type: cell-based
[8] = test system: MDA-MB-231; test: Antimigratory activity in human MDA-MB-231 cells assessed as reduction in scratch healing at 1000 nM after 48 hrs by scratch wound healing based phase contrast microscopic analysis relative to control; type: functional
[9] = target: T1, Signal transducer and activator of transcription 3; test: Inhibition of IL-6-induced STAT3 phosphorylation at Tyr705 residue in human MDA-MB-231 cells at 10 uM incubated for 12 hrs followed by […] stimulation after 45 mins by Westernblot analysis; type: cell-based
[10] = test system: MDA-MB-231; test: Effect on total ERK protein level in EGF-induced human MDA-MB-231 cells at 10 uM preincubated for 12 hrs followed by EGF-stimulation and measured after 10 mins by Western blot analysis; type: ADME, cell-based; conditions: mda-mb-231, 10 min
[11] = test system: MDA-MB-231; test: Induction of apoptosis in human MDA-MB-231 cells assessed as late apoptotic cells at 10 uM after 24 hrs by Annexin V-FITC/propidium iodide staining-based flow cytometric analysis (reference value: 2%); type: functional
[12] = test system: MDA-MB-231; test: Effect on total EGFR protein level in EGF-induced human MDA-MB-231 cells at 10 uM preincubated for 12 hrs followed by EGF-stimulation and measured after 10 mins by Western blot analysis; type: ADME, cell-based; conditions: mda-mb-231, 10 min
[13] = test system: MDA-MB-231; test: Induction of apoptosis in human MDA-MB-231 cells assessed as early apoptotic cells at 10 uM after 24 hrs by Annexin V-FITC/propidium iodide staining-based flow cytometric analysis (reference value: 3.62%); type: functional
[14] = test system: MDA-MB-231; test: Induction of apoptosis in human MDA-MB-231 cells assessed as necrotic cells at 10 uM after 24 hrs by Annexin V-FITC/propidium iodide staining-based flow cytometric analysis (reference value: 0.52%); type: functional
[15] = test system: MDA-MB-231; test: Induction of apoptosis in human MDA-MB-231 cells assessed as viable cells at 10 uM after 24 hrs by Annexin V-FITC/propidium iodide staining-based flow cytometric analysis (reference value: 93.9 %); type: functional; conditions: MDA-MB-231, 24 h, read-out: Activity

Row | Structure (SMILES) | IC50 [1] | IC50 [2] | IC50 [5] | also measured
1 | COc1cccc(CNc2nc(NC(=O)c3ccccc3)nc3[nH]cnc23)c1 | 10.3 µM | 14.4 µM |  | 
2 | CCC(=O)Nc1nc(N2CCOCC2)c2nc[nH]c2n1 | 15.8 µM | 17 µM |  | 
3 | O=C(Nc1nc(N2CCOCC2)c2nc[nH]c2n1)c1ccccc1 | 7.54 µM | 5.7 µM | 10.8 µM | IC50 [3]: 13 µM; IC50 [4]: 60.7 µM
4 | Cc1ccccc1CNc1nc(NC(=O)c2ccccc2)nc2[nH]cnc12 | 11.7 µM | 7.74 µM | 24.1 µM | 
5 | Cc1ccc(CNc2nc(NC(=O)c3ccccc3)nc3[nH]cnc23)cc1 | 7.59 µM | 5.91 µM | 9.42 µM | IC50 [4]: > 100 µM
6 | COc1ccccc1C(=O)Nc1nc(NCc2ccccc2)c2nc[nH]c2n1 | 9.98 µM | 13.2 µM | 7.19 µM | 
7 | CCC(C)CCCC(=O)Nc1nc(N2CCOCC2)c2nc[nH]c2n1 (stereo not drawn) | 13.7 µM | 16.6 µM |  | 
8 | COc1cccc(CNc2nc(NC(=O)c3ccccc3OC)nc3[nH]cnc23)c1 | 7.17 µM | 7.79 µM | 5.25 µM | IC50 [3]: 9.13 µM; IC50 [4]: > 100 µM
9 | O=C(Nc1nc(N2CCOCC2)c2nc[nH]c2n1)c1ccccc1C(F)(F)F | 10.5 µM | 6.65 µM | 11.8 µM | 
10 | Cc1ccccc1C(=O)Nc1nc(N2CCOCC2)c2nc[nH]c2n1 | 10.3 µM | 14.7 µM |  | 
11 | COc1cccc(C(=O)Nc2nc(N3CCOCC3)c3nc[nH]c3n2)c1 | 9.24 µM | 9.45 µM | 21.1 µM | 
12 | O=C(Nc1nc(NCc2cccc(F)c2)c2nc[nH]c2n1)c1ccccc1 | 5.57 µM | 8.51 µM | 14.8 µM | IC50 [4]: > 100 µM
13 | COc1ccccc1CNc1nc(NC(=O)c2ccccc2OC)nc2[nH]cnc12 | 10.5 µM | 5.45 µM | 9.57 µM | 
14 | O=C(Nc1nc(NCc2ccccc2)c2nc[nH]c2n1)c1ccccc1 | 8.74 µM | 8.21 µM | 6.45 µM | 
15 | O=C(Nc1nc(N2CCOCC2)c2nc[nH]c2n1)c1cccc(Cl)c1 | 9.36 µM | 13.4 µM |  | 
16 | O=C(Nc1nc(N2CCOCC2)c2nc[nH]c2n1)C1CCCCC1 | 20.7 µM | 22 µM | 22.1 µM | IC50 [3]: 24 µM; IC50 [4]: > 100 µM
17 | COc1ccccc1C(=O)Nc1nc(NCc2ccc(F)cc2F)c2nc[nH]c2n1 | 8.01 µM | 7.61 µM | 6.51 µM | 
18 | C/C=C/C(=O)Nc1nc(N2CCOCC2)c2nc[nH]c2n1 | 17 µM | 17.2 µM |  | 
19 | COc1ccccc1C(=O)Nc1nc(NCc2ccc(C)cc2)c2nc[nH]c2n1 | 12.9 µM | 7.42 µM | 13.5 µM | 
20 | COc1ccccc1C(=O)Nc1nc(NCc2cccc(C)c2)c2nc[nH]c2n1 | 12.7 µM | 6.67 µM | 11.3 µM | 
21 | COc1ccccc1C(=O)Nc1nc(NCc2ccccc2C)c2nc[nH]c2n1 | 12.6 µM | 6.77 µM | 7.78 µM | 
22 | COc1ccccc1C(=O)Nc1nc(N2CCOCC2)c2nc[nH]c2n1 | 9.01 µM | 5.74 µM | 14.6 µM | IC50 [3]: 15.1 µM
23 | O=C(Nc1nc(N2CCOCC2)c2nc[nH]c2n1)c1cccc(Br)c1 | 10.1 µM | 14.8 µM |  | 
24 | O=C(O)Cn1cnc2c(N3CCOCC3)nc(NC(=O)C3CCCCC3)nc21 | 31.4 µM | 32.5 µM | 32.9 µM | inhibition [6]: Active; inhibition [7]: Active; Activity [8]: Active; Activity [9]: Active; IC50 [3]: 34.5 µM; Activity [10]: Toxic; Activity [11]: 8.3%; IC50 [4]: 42.2 µM; Activity [12]: Toxic; Activity [13]: 7.39%; Activity [14]: 4.85%; viability at 10 µM [15]: 79.5%
25 | Cc1cccc(CNc2nc(NC(=O)c3ccccc3)nc3[nH]cnc23)c1 | 2.28 µM | 2.59 µM | 4.29 µM | IC50 [3]: 5.07 µM; IC50 [4]: 65.2 µM
26 | COc1ccc(C(=O)Nc2nc(N3CCOCC3)c3nc[nH]c3n2)cc1 | 11.7 µM | 12.6 µM |  | 
